For test [1], the system named is SARS-CoV-2. In words: Antiviral activity against SARS-CoV-2 harboring recombinant live-attenuated delta3678 mGFP infected in human A549-ACE2 cells measured after 48 hrs by RT-PCR analysis. The class given is functional, organism-based. The conditions noted are these: Severe acute respiratory syndrome coronavirus 2, A549-ACE2, 48 h.
The subject of test [2] is SARS-CoV-2. Description: Antiviral activity against SARS-CoV-2 harboring NSP5 E166A mutant infected in human A549-ACE2 cells measured after 48 hrs by RT-PCR analysis. The class given is functional, organism-based, Severe acute respiratory syndrome coronavirus 2.

For `C[C@@H](OC(C)(C)C)[C@H](NC(=O)OCc1cccc(OCCCCCCOc2cccc3c2C(=O)N(C2CCC(=O)NC2=O)C3=O)c1)C(=O)N[C@@H](CC1CCCCC1)C(=O)N[C@H](C=O)C[C@@H]1CCNC1=O` (some centres not stated), the EC50 is 2200 nM in test [1] and 460 nM in test [2].

By EC50 is commonly meant the concentration that produces a half-maximal response.
